Results on 77 sequences are retold here after the supplement of paper PMC2824726.

The test system of this data set is MDA-MB-231. Briefly: shRNA barcode abundance ratio t_end/t_zero (depletion over 4 weeks of proliferation) (log2 ratio); higher = less depletion (weaker anti-proliferative effect of the shRNA). As to conditions: time after t zero 28 days. The method, then:
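Pooled lentiviral negative-selection screen of 305 pGIPZ shRNAs (Open Biosystems V2LHS clones; the 21-nt half-hairpin sense stem is embedded in a mir-30 scaffold) in MDA-MB-231 breast carcinoma cells, infected at MOI 0.3 with 0.5 ug/ml puromycin selection. Barcode abundance was read on barcode tiling microarrays (six 25-nt probes per 60-nt barcode) at t_zero (5 days post-infection) and t_end (33 days; 28 days of culture after t_zero). Values are median-normalised t_end/t_zero signal ratios, averaged over the tiling probes that passed a 10-fold background filter, from three biological replicates.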
For “GCCGAAGATTTCACAGTCAAA (targeted gene: IGF1R)”, the “shRNA barcode abundance ratio t end/t zero (log2)” value was 0.225.
The result for “GCCGTTAACTAGGTTAATAAA (targeted gene: FANCF)” reads -0.0468.
Then “GCCTACAGCTGCCTCCTAGAA (targeted gene: ANXA4)”, with 0.417.
The result for “GCCTACTTTCACACTAAGAAA (targeted gene: CASP8)” reads -0.242.
For the sequence “GCCTATATCAGCAATTGTCAT (targeted gene: ATM)”, the “shRNA barcode abundance ratio t end/t zero (log2)” value is -0.178.
Regarding “GCCTATGACTTTATCATGAAA (targeted gene: ABCB1)”, the “shRNA barcode abundance ratio t end/t zero (log2)” value worked out at 0.0933.
As for “GCCTCACCAGTCCATTATTAT (targeted gene: BIRC6)”, the “shRNA barcode abundance ratio t end/t zero (log2)” value was found to be 0.259.
Take “GCCTGCTGAATTTATGTTGTA (targeted gene: RAB6C)”: the “shRNA barcode abundance ratio t end/t zero (log2)” value was -1.3.
The result for “GCCTGTCCATTGGTGATGTTG (targeted gene: HMGB1)” reads -0.18; that for “GCCTTGAAACATTGATGGAAT (targeted gene: BCL2)”, 0.25.
Then “GCCTTGGAACTGATGAAGATA (targeted gene: ANXA1)”, with 0.483; and “GCGAAGAACCTTGTGTGACAA (targeted gene: BCL2)”, with -0.0784.
The result for “GCGCAAGAAATCCCGGTATAA (targeted gene: VEGFA)” reads 0.382; that for “GCGCACAGGCTTTATCGAGAA (targeted gene: IGFBP3)”, -0.0187.
As for “GCGCCGAAATTGCAGGTTTAT (targeted gene: BIRC8)”, the “shRNA barcode abundance ratio t end/t zero (log2)” value was -0.37.
The result for “GCGCGAGTTCGCTTCTAATAT (targeted gene: GSX1)” reads 0.174; that for “GCGGTTCTTAGAAGAGTACTT (targeted gene: DAD1)”, -0.432.
Then “GCGTCGTTAATTTATTTCTTA (targeted gene: IER3)”, with 0.159.
With “GCGTCTGGCCTCCTTCTATGA (targeted gene: BIRC7)”, the “shRNA barcode abundance ratio t end/t zero (log2)” value came to 0.556.
For “GCGTGCCATGACAAAGGATAA (targeted gene: HSPA8)”, the “shRNA barcode abundance ratio t end/t zero (log2)” value was -0.885.
On to “GCGTTTAAGGTGAGCATAAAT (targeted gene: CYP1B1)”, for which the “shRNA barcode abundance ratio t end/t zero (log2)” value is -0.142.
With “GCTAACTGTGTGTACATATAT (targeted gene: PEA15)”, the “shRNA barcode abundance ratio t end/t zero (log2)” value was -0.216.
Consider “GCTAAGAGATTCGCCTTAAAT (targeted gene: SOCS3)”, for which the “shRNA barcode abundance ratio t end/t zero (log2)” value amounted to 0.308.
The result for “GCTATACGAATGGGATTTGAT (targeted gene: BIRC8)” reads 0.211; that for “GCTATCTCTCCTGAAGCAATA (targeted gene: BCL2A1)”, 0.264.
In the case of “GCTCAACAGATCCAATTTCAT (targeted gene: RBKS)”, the “shRNA barcode abundance ratio t end/t zero (log2)” value is -0.0517.
Then “GCTCACTACCAAATGTTAATA (targeted gene: BAD)”, with 0.223.
“GCTCACTCTTCAGTCGGAAAT (targeted gene: BCL2L1)”: the “shRNA barcode abundance ratio t end/t zero (log2)” value is -0.368.
Regarding “GCTCAGTGAGCCCATGGAATT (targeted gene: RELA)”, the “shRNA barcode abundance ratio t end/t zero (log2)” value was 0.332.
Turning to “GCTCTGTACTTCAACCCAATT (targeted gene: BFAR)”, the “shRNA barcode abundance ratio t end/t zero (log2)” value is 0.0174.
Then “GCTCTTCATCAGGAGAAATAA (targeted gene: OPA1)”, with 0.0963; and “GCTCTTCCACTCAGGTGAGAA (targeted gene: LOC284939)”, with -0.0337.
The result for “GCTGAAGTACAGGACAATTAT (targeted gene: TAX1BP1)” reads 0.181.
As for “GCTGAGACAACGTACGACAAA (targeted gene: GDNF)”, the “shRNA barcode abundance ratio t end/t zero (log2)” value was -0.263.
For the sequence “GCTGAGGAGGCTCAAGTTAAA (targeted gene: TGFB1)”, the “shRNA barcode abundance ratio t end/t zero (log2)” value came out at 0.277.
Then “GCTGCCAAACTTCAGATAATA (targeted gene: NT5C3)”, with 0.163; and “GCTGCTTCTGTCTGGTTTATT (targeted gene: THY1)”, with -0.0341.
Regarding “GCTGGACAACTTGTTGTTAAA (targeted gene: IL10)”, the “shRNA barcode abundance ratio t end/t zero (log2)” value is 0.168.
Turning to “GCTGGCAATTACCAGAACAAT (targeted gene: WRN)”, the “shRNA barcode abundance ratio t end/t zero (log2)” value is 0.0875.
On to “GCTGTAACTACTTTATAACTA (targeted gene: RHOA)”, for which the “shRNA barcode abundance ratio t end/t zero (log2)” value was -0.0204.
Take “GCTGTGAGTTCTGATAGGAAT (targeted gene: XIAP)”: the “shRNA barcode abundance ratio t end/t zero (log2)” value was -0.186.
On to “GCTGTGGTTAATTACACATTA (targeted gene: ACVR1)”, for which the “shRNA barcode abundance ratio t end/t zero (log2)” value was -0.208.
Turning to “GCTTAGAACTTTAAGCAACAA (targeted gene: TNF)”, the “shRNA barcode abundance ratio t end/t zero (log2)” value is -1.56.
The result for “GCTTCCTACAGCACAACAAAT (targeted gene: VEGFA)” reads 0.437; that for “GCTTGTTGTTTGAGAAGTTTA (targeted gene: BAG3)”, 0.38; that for “GGAAATTCTTTCACTTCATTA (targeted gene: MCL1)”, 0.208.
Turning to “GGAACTTTAGTTGAAGCGTAA (targeted gene: APAF1)”, the “shRNA barcode abundance ratio t end/t zero (log2)” value came out at 0.303.
Then “GGAAGTGATCCAAATGTTAAA (targeted gene: BARD1)”, with -2.23; and “GGACAAAGTTTACCAAATGAA (targeted gene: CASP8)”, with 0.402; and “GGACAGTGCTTGATACAGGAA (targeted gene: PIM1)”, with 0.128.
The result for “GGACATCTAGTCACTTGTAAA (targeted gene: XIAP)” reads 0.00436; that for “GGACATGACAACTCATCTCAT (targeted gene: IL6)”, 0.175.
Then “GGACTCTAGAATGTCCATATT (targeted gene: NUAK2)”, with 0.326.
Take “GGACTCTCTTCTAGAGCCATA (targeted gene: BCL2L2)”: the “shRNA barcode abundance ratio t end/t zero (log2)” value is 0.635.
Then “GGACTTCAGCAGAAATCTTTA (targeted gene: CASP8)”, with 0.126.
“GGAGAAATTATTGATCCAAAT (targeted gene: NAIP)”: the “shRNA barcode abundance ratio t end/t zero (log2)” value amounted to 0.608.
Then “GGAGAGAACTGTCATTTCTAA (targeted gene: IGF1R)”, with 0.393; and “GGAGTGAGATTGATCTGTTTA (targeted gene: ANXA5)”, with -0.0616.
Turning to “GGAGTGCTCATTGTGAAGAAA (targeted gene: SORT1)”, the “shRNA barcode abundance ratio t end/t zero (log2)” value was -0.0388.
The result for “GGATAGACTGGTCTAGAATAA (targeted gene: RALBP1)” reads 0.174; that for “GGATATTGAACAGAGTATTAA (targeted gene: ANXA4)”, -0.0211.
Take “GGATGCTTCTGAATAGAAATA (targeted gene: BIRC7)”: the “shRNA barcode abundance ratio t end/t zero (log2)” value came out at 0.0929.
Then “GGATGTTGGAAATTACTATTA (targeted gene: HDAC1)”, with 0.178; and “GGATTCTCAACACTTTGAATT (targeted gene: ANXA4)”, with 0.244; and “GGCAAATCCTTGTTTAACAAA (targeted gene: BIRC6)”, with 0.616.
For “GGCACAACACTAATTACCATT (targeted gene: PROK2)”, the “shRNA barcode abundance ratio t end/t zero (log2)” value came to 0.0935.
For “GGCAGCTTCCTTGAACCATTA (targeted gene: SPHK1)”, the “shRNA barcode abundance ratio t end/t zero (log2)” value was -0.334.
For “GGCAGGTATTTGACATATTAA (targeted gene: NFKB1)”, the “shRNA barcode abundance ratio t end/t zero (log2)” value stood at 0.217.
The result for “GGCATCAGATGAATTGTTAAT (targeted gene: IL3)” reads 0.161; that for “GGCATTAGTTTCTCAGTTAAA (targeted gene: MLH1)”, 0.141; that for “GGCCAGAATATCATTGTCATA (targeted gene: RBKS)”, -0.309.
Then “GGCCATGCCTGTTTACAAGAA (targeted gene: TP73)”, with -0.24; and “GGCCATTATGCACAGGTTGAA (targeted gene: CD40LG)”, with 0.119; and “GGCCATTCATTTAATGTGCAT (targeted gene: HBXIP)”, with 0.497.
Consider “GGCCATTGTCACAGAGGATAA (targeted gene: MLH1)”, for which the “shRNA barcode abundance ratio t end/t zero (log2)” value is 0.62.
The result for “GGCCCAAATTATCAAGCTAAT (targeted gene: CRYAB)” reads -0.348; that for “GGCCCAAGGTCCAAGTAGAAT (targeted gene: HSPA8)”, 0.332.
